The numbers were not newly measured in patent US8840883B2, “Metallo-protein and tocotrienol (MP-T3) compositions with non-protein-type metal chelator and uses thereof” (Naidu LP, priority 2007, dated 2014), which cites them from elsewhere.

For the series the following is noted: as low as 2% oxygen.

In the case of `Cc1c(O)cc2c(c1C)O[C@](C)(CCC[C@H](C)CCC[C@H](C)CCCC(C)C)CC2` [gamma-tocopherol], the degradation is given as 20%.

For the compound `CC(C)=CCC/C(C)=C/CC/C(C)=C/CC[C@]1(C)CCc2cc(O)c(C)c(C)c2O1` [gamma-T3], the degradation was 29%.
